The source made the active and inactive calls. How the calls were made is not given here.
Target: Chaperone protein DnaK (Escherichia coli (strain K12)) (UniProt P0A6Y8)
Test: E. coli DnaK SBD ligand binding – biophysical, NMR, chaperone (AID 1033)
Conditions: Purified DnaK SBD

Chaperone protein DnaK (Escherichia coli (strain K12)), sequence (P0A6Y8 whole entry, looked up): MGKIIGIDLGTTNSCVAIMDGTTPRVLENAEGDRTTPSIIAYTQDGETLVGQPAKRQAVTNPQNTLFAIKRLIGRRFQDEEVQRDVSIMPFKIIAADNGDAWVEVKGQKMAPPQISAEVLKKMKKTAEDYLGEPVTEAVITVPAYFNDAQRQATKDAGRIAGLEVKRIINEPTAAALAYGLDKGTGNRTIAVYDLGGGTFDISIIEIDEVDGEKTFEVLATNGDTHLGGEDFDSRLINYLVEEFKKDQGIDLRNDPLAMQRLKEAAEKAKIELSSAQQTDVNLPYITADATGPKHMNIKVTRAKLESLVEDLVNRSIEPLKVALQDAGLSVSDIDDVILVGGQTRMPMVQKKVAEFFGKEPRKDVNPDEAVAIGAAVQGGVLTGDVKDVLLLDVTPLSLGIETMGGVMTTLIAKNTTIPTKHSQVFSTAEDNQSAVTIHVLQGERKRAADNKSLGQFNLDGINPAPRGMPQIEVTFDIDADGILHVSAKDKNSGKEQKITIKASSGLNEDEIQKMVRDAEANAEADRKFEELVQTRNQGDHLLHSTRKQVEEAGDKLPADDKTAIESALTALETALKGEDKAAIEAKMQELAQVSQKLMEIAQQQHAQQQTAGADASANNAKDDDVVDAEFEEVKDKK

SMILES | Kd
COc1ccc(S(N)(=O)=O)cc1 | > 4 mM (inactive)
Cc1nc2ccc(C(=O)O)cc2nc1C | > 4 mM (inactive)
CN(C)c1ccc(CNn2cnnc2)cc1 | > 4 mM (inactive)
O=C1NC(=S)N/C1=C\c1ccccc1F | > 4 mM (inactive)
O=c1ccc2ccc(O)cc2o1 | > 4 mM (inactive)
Oc1ccccc1N=Cc1cccnc1 | > 4 mM (inactive)
Nc1ccc(S(=O)(=O)Nc2ccc(F)cc2F)cc1 | > 4 mM (inactive)
CN1CCN(c2ncnc3nc[nH]c23)CC1 | > 4 mM (inactive)
O=C(CN1CCOCC1)Nc1cccc(Br)c1 | > 4 mM (inactive)
C=CCCCCCCCCCCCC(O)CC(O)CO (stereo not given) (tested in a mixture with another compound) | > 4 mM (inactive)
O=C(O)c1ccc2snnc2c1 | > 4 mM (inactive)
CSc1nnc(CN2CCSCC2)n1C | > 4 mM (inactive)
CCn1c(-c2ccccc2)n[nH]c1=S | > 4 mM (inactive)
O=C(NCc1ccco1)c1ccc(=O)[nH]c1 | > 4 mM (inactive)
c1ccc(-c2nc3ccccc3nc2-c2ccccn2)nc1 | > 4 mM (inactive)
OCCNC(=S)Nc1ccccc1 | > 4 mM (inactive)
O=C(Nc1ccc2c(c1)CCC2)c1cnccn1 | > 4 mM (inactive)
COc1cc(OC)c(-c2nc3cnccc3n2C)cc1OC | > 4 mM (inactive)
CC(=O)Nc1ccc2c(c1)CCC2=O | > 4 mM (inactive)
NC(=O)C1CCN(C(=S)c2ccccc2)CC1 | > 4 mM (inactive)
Cc1n[nH]c(C)c1-c1ccccc1C(=O)O | > 4 mM (inactive)
C/C1=C\CCC(=O)C2CC(C)(C)C2CC1 (stereo not given) | > 4 mM (inactive)
CC(=O)CC1(O)C(=O)Nc2ccc(Br)cc21 (stereo not given) | > 4 mM (inactive)
CSc1n[nH]c(NCc2ccccc2)n1 | > 4 mM (inactive)
CN1CCC(=NNC(=O)c2ccco2)CC1 | > 4 mM (inactive)

SMILES | Kd
C/C=C(/C)C(=O)O[C@@H]1Cc2c(ccc3ccc(=O)oc23)OC1(C)C | > 4 mM (inactive)
Cc1nnsc1C(=O)Nc1cccc(S(N)(=O)=O)c1 | > 4 mM (inactive)
Cc1cc(C)n2nc(SCC(=O)c3ccccc3)nc2n1 | > 4 mM (inactive)
O=C(NCc1ccccc1Cl)c1cnn2cccnc12 | > 4 mM (inactive)
O=C(CO)N/N=C/c1ccccc1F | > 4 mM (inactive)
Cc1nc2ccccc2c2c1C(=O)N(C)C2=O | > 4 mM (inactive)
CCCCCCCCCCCCCCCCCCOCC(O)CO (stereo not given) | > 4 mM (inactive)
Cn1c2ccccc2n2c(=S)[nH]nc12 | > 4 mM (inactive)
Nc1ccc2c(c1)OCO2 | > 4 mM (inactive)
Cc1cc(C(=O)N2CCC3(CC2)OCCO3)cs1 | > 4 mM (inactive)
Cc1ccc(CCNc2ccccc2)c[n+]1[O-] | > 4 mM (inactive)
COc1cccc(NC(=O)c2ncn[nH]2)c1 | > 4 mM (inactive)
CNS(=O)(=O)c1cccs1 | > 4 mM (inactive)
CN1C(=O)c2ccc(N3CCCC3)cc2C1=O | > 4 mM (inactive)
CC(=O)Nc1ccc(NC(=O)/C=C\C(=O)O)cc1 | > 4 mM (inactive)
O=c1ccn(Cc2ccccc2)c(=O)n1Cc1ccccc1 | > 4 mM (inactive)
Cc1nnsc1C(=O)Nc1ccccc1[N+](=O)[O-] | > 4 mM (inactive)
O=C(O)CSc1nnc(-c2cccs2)o1 | > 4 mM (inactive)
Cn1c(=O)n(CC(=O)N2CCOCC2)c2ccccc21 | > 4 mM (inactive)
O=C(Nc1ccon1)c1ccc(Br)o1 | > 4 mM (inactive)
Cc1cccc(-c2nnc(-c3ccc(N)cc3)o2)c1 | > 4 mM (inactive)
O=C(O)[C@H](O)[C@@](O)(Cc1ccc(O)cc1)C(=O)O | > 4 mM (inactive)
O=C(Nc1ccon1)c1cccc(Cl)c1 | > 4 mM (inactive)
N#Cc1cnn(Cc2ccc(Cl)cc2)c1N | > 4 mM (inactive)
Cn1c(SCCC(=O)O)nnc1-c1cccnc1 | > 4 mM (inactive)
